What was measured:
blood cholesterol = experiment: Experimental cholesterolaemia tests; format: in vivo; conditions: for total cholesterol: daily for six weeks with cholesterolaemia-lowering diet, L-carnitine 100 mg/kg, hexacosanol 10 mg/kg or both, controls 95.2 ± 5.4, hypercholesterolaemic controls 285.7 ± 11.2; for cholesterolaemia-lowering action (in words): six weeks
Text: In experimental cholesterolaemia, too, a marked synergistic effect of the L-carnitine plus hexacosanol combination was detected. In these tests, the experimental cholesterolaemia was induced according to the method described by Sirtori (Sirtori CR, Atherosclerosis 26-27, 1977). Treatment both With L-carnitine and hexacosanol, as well as with the two compounds in combination, was continued daily for six weeks, in conjunction with a cholesterolaemia-lowering diet. On completing the six weeks of treatment, blood cholesterol was assayed both in control animals put on a cholesterolaemia-lowering diet alone and in animals treated with L-carnitine, or with hexacosanol, or with the two compounds in combination. Using the assay method described by Roschlan (Roschlan P, Clin Chem Clin Biochem 12: 403, 1975).

[1] = Acute oral toxicity in mice; format: in vivo; conditions: 2 g/kg L-carnitine or 500 mg/kg hexacosanol, alone or in combination
[2] = Acute oral toxicity in rats; format: in vivo; conditions: 2 g/kg L-carnitine or 500 mg/kg hexacosanol, alone or in combination
[3] = test system: atherosclerotic lesions (abdominal aorta); experiment: Experimental atherosclerosis tests (atherogenic diet); format: in vivo, Wistar male rats; conditions: abdominal aorta thickness and Sudan IV staining, 1- to 5-point score
Protocol: D2 200 m STU/g diet. The anti-atherogenic effect of both L-carnitine and hexacosanol were evaluated by using morphometric methods to measure the thickness of the abdominal aorta and the intensity of the staining induced by Sudan IV, with a 1- to 5-point scoring system, according to the degree of severity.

[4] = Prolonged daily administration (30 days) tolerability, body weight, blood chemistry and histology; format: in vivo, rats and mice; conditions: daily for 30 days; carnitine 250 mg/kg or hexacosanol 20 mg/kg, alone or in combination
Text: Moreover, no abnormalities were found at histological examination of the parenchyma of the main organs (heart, lungs, kidneys, adrenal glands and pancreas).

[5] = test system: ATP content of the papillary muscle; experiment: ATP concentrations in papillary muscle of rabbits with induced hypoxia; format: in vivo, New Zealand rabbits; conditions: L-carnitine 100 mg/kg, hexacosanol 10 mg/kg or both, i.v. daily for 3 days; for ATP content after hypoxia: 60 min of hypoxia, controls 0.45 ± 0.03; for ATP content before hypoxia: normal perfusion 90 min, controls 1.65 ± 0.28
Protocol: These tests were performed in New Zealand rabbits with a mean body weight of 2 kg, receiving daily intravenous injections of a solution containing 100 mg/kg of L-carnitine or 10 mg/kg of hexacosanol, or of the two substances combined at the same doses, for 3 consecutive days. A group of animals received no treatment and served as the control group.
All the animals treated were sacrificed along with the controls at the end of the third day of treatment two hours after the last injection. The hearts were removed and equal sections of papillary muscle measuring 1 mm in diameter and 4-5 mm in thickness were isolated. These tissues were perfused in a thermostatic bath with a (100%) saturated O2 solution. Experimental hypoxia conditions were induced by introducing N2 (100%) into the bath in place of O2. […] The analysis was done on tissue samples maintained under normal perfusion conditions for 90 min and after 60 min of hypoxia.

[6] = test system: left ventricular arrhythmias due to myocardial anoxia; experiment: Cardiac anoxia induced by coronary ligation (left ventricular arrhythmias); format: in vivo, Male Wistar rats; conditions: for Start of arrhythmias / Total ectopic contractions during 30 min after coronary ligation: L-carnitine 100 mg/kg, hexacosanol 10 mg/kg or both into left ventricle 15 min before ligation; for Start of arrhythmias: controls 4-7; for Total ectopic contractions during 30 min after coronary ligation: controls 992 ± 118; for ability to reduce ectopic contractions (in words): administered alone
Protocol: These tests were performed to evaluate the protective action of L-carnitine and hexacosanol and their combination on left ventricular arrhythmias due to myocardial anoxia induced by coronary ligation according to the technique described by Selych et cal. (Angiology 11-398, 1960) and by Clark et al. (J Pharmacol Methods 3-357, 1980). Male Wistar rats with a mean body weight of 350-400 g were submitted to surgical occlusion of the left coronary artery. Arrhythmias set in within 4-7 min of coronary ligation. Ventricular ectopic contractions were then counted during a period of 30 min both in a group of control rats and in the groups of rats receiving slow injection of a solution containing L-carnitine (100 mg/kg), hexacosanol (10 mg/kg) or the two substances in combination at the same doses into the left ventricle 15 min before ligation.

platelet aggregation = experiment: Platelet aggregation inhibition tests (collagen-induced); format: cell-based, healthy volunteers; conditions: collagen 2.5 ng/mL, 10 min incubation
Protocol: The tests were performed using plasma from healthy volunteers containing at least 300,000 platelets/mm^3.
The platelet count was done using a CA 580A Platelet Counter (Delcon). Platelet aggregation was induced using collagen as the aggregating agent at doses of 2.5 and 5 ng/mL according to the technique described by Born and Cross (Born YVR, Cross M, J Physiol 26: 25, 1963).
Platelet aggregation was determined photometrically (Born VJR, Nature 194: 927, 1962) using an Elvi 840 aggregometer.
Platelet aggregation was measured in basal conditions and after 10 min of incubation with L-carnitine, hexacosanol and the L-carnitine-hexacosanol combination.

With `C[N+](C)(C)C[C@H](O)CC(=O)[O-]` [L-carnitine] the total cholesterol (blood cholesterol) was 265.5 ± 6.1 mg/dL, the “cholesterolaemia-lowering action (in words)” value (blood cholesterol) was “fairly modest” and the mortality [1] was “without any mortality”. The signs of toxicity [1] was “without any evident signs of toxicity”, the mortality [2] was “without any mortality” and the signs of toxicity [2] was “without any evident signs of toxicity”. For the same molecule, the “severity/occurrence of atherosclerotic lesions (in words)” value [3] was “capable of reducing the severity of the atherosclerotic lesions”, the “signs of toxic reactions or of poor tolerability” value [4] was “failed to produce any signs of toxic reactions or of poor tolerability” and the ATP content after hypoxia [5] was 0.67 ± 0.02 µmol/g tissue. The ATP content before hypoxia [5] was 1.77 ± 0.25 µmol/g tissue, the Start of arrhythmias [6] was 4 to 7 min and the “Total ectopic contractions during 30 min after coronary ligation” value [6] was 860 ± 202. For the same molecule, the “ability to reduce ectopic contractions (in words)” value [6] was “only a very limited ability to reduce ectopic contractions” and the “effect on platelet aggregation induced by collagen (in words)” value (platelet aggregation) was “not changed”.
With `CCCCCCCCCCCCCCCCCCCCCCCCCCO` [Hexacosanol] the total cholesterol (blood cholesterol) was 268.5 ± 5.6 mg/dL, the “cholesterolaemia-lowering action (in words)” value (blood cholesterol) was “fairly modest” and the “severity/occurrence of atherosclerotic lesions (in words)” value [3] was “capable of reducing the severity of the atherosclerotic lesions”. For the same molecule, the ATP content after hypoxia [5] was 0.77 ± 0.05 µmol/g tissue, the ATP content before hypoxia [5] was 1.7 ± 0.3 µmol/g tissue and the Start of arrhythmias [6] was 5 to 7 min. The “Total ectopic contractions during 30 min after coronary ligation” value [6] was 810 ± 190, the “ability to reduce ectopic contractions (in words)” value [6] was “only a very limited ability to reduce ectopic contractions” and the IC50 (platelet aggregation; Homo sapiens, Platelet, 10 min, read-out: ED50, inhibition of platelet aggregation induced by collagen) was 5.5 ng/mL. The “effect on platelet aggregation induced by collagen (in words)” value (platelet aggregation) was “only partly inhibiting the platelet aggregation”.
